# Test results from patent US11618758B2, “Bicyclic and tricyclic pyrimidine tyrosine kinase inhibitors with antitubulin activity and methods of treating a patient” (Duquesne University of the Holy Spirit, priority 2011, dated 2023).
# Experiments:
# [1] = target: T1, epidermal growth factor receptor (EGFR) (Homo sapiens, UniProt P00533); conditions: does not inhibit EGFR even at these concentrations; cited from earlier work
# [2] = target: T1, epidermal growth factor receptor (EGFR); assay: Kinase inhibition EGFR; type: biochemical; conditions: comparable to sunitinib
# [3] = target: vascular endothelial growth factor receptor (VEGFR2, Flk-1) (Homo sapiens, UniProt P35968); assay: Kinase inhibition VEGFR2; type: biochemical; conditions: comparable to sunitinib
# vascular endothelial growth factor receptor (VEGFR2, Flk-1), sequence (P35968 20-1356): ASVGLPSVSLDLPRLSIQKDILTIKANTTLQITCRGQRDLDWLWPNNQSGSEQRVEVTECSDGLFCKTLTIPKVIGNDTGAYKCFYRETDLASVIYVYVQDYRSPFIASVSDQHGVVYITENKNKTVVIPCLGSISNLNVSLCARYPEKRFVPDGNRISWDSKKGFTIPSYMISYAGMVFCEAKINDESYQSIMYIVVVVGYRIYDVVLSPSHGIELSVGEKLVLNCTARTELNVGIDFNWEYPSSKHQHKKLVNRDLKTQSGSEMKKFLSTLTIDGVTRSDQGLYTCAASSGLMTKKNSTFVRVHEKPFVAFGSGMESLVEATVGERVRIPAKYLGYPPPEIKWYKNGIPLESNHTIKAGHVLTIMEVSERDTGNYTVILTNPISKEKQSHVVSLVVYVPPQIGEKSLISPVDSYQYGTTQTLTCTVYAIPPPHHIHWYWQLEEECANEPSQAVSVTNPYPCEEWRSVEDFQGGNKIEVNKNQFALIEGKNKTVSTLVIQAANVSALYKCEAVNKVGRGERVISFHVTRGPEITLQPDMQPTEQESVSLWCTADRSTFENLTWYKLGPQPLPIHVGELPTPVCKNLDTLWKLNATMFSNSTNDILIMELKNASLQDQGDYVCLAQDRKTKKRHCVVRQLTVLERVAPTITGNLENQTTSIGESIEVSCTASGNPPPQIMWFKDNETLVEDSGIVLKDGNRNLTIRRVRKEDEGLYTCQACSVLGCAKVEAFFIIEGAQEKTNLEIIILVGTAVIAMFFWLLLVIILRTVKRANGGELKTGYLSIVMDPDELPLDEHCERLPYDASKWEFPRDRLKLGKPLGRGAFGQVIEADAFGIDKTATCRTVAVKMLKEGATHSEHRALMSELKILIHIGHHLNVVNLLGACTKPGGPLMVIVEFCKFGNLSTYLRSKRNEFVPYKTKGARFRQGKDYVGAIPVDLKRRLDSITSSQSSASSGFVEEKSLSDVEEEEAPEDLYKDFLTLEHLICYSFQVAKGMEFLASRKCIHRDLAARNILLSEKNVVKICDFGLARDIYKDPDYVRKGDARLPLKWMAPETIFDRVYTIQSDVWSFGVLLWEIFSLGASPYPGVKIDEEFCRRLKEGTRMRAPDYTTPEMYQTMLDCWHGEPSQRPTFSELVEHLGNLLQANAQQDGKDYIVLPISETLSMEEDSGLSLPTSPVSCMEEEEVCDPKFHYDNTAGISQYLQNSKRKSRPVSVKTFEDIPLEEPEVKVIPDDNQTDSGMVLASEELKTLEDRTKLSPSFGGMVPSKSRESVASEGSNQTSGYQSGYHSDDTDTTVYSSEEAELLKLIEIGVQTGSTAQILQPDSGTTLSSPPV
# [4] = target: platelet derived growth factor receptor-β (PDGFR-β) (Homo sapiens, UniProt P09619); assay: Kinase inhibition PDGFRβ; type: biochemical; conditions: comparable to sunitinib
# platelet derived growth factor receptor-β (PDGFR-β), sequence (P09619 33-1106, species assumed): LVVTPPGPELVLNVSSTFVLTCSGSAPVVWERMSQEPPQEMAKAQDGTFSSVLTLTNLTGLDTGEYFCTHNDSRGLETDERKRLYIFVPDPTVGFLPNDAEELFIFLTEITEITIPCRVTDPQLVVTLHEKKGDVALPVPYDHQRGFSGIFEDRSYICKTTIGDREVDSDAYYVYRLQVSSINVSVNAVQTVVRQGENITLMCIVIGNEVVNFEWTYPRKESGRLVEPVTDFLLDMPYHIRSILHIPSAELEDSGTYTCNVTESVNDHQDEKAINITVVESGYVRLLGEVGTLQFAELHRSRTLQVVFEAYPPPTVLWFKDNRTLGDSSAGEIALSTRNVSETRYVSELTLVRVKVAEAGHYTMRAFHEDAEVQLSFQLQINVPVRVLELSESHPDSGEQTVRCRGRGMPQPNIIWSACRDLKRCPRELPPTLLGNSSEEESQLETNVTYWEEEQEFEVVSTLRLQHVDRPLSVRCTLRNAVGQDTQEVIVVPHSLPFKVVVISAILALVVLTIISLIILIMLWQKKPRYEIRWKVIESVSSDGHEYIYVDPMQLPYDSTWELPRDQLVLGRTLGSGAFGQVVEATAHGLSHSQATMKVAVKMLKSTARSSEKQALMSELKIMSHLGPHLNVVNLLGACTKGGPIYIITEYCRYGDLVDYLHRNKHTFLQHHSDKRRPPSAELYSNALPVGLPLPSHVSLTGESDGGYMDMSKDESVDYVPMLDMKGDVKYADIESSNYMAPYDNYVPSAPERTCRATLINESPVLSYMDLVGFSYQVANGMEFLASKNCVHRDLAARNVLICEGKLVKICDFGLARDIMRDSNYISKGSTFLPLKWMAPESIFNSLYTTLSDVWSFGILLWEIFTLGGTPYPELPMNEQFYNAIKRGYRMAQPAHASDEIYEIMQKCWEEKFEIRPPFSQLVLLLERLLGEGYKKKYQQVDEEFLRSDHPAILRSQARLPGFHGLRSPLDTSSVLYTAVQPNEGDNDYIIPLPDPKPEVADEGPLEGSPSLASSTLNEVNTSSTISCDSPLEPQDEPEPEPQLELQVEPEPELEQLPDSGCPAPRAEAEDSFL
# T1 sequence (P00533 25-1210, species assumed): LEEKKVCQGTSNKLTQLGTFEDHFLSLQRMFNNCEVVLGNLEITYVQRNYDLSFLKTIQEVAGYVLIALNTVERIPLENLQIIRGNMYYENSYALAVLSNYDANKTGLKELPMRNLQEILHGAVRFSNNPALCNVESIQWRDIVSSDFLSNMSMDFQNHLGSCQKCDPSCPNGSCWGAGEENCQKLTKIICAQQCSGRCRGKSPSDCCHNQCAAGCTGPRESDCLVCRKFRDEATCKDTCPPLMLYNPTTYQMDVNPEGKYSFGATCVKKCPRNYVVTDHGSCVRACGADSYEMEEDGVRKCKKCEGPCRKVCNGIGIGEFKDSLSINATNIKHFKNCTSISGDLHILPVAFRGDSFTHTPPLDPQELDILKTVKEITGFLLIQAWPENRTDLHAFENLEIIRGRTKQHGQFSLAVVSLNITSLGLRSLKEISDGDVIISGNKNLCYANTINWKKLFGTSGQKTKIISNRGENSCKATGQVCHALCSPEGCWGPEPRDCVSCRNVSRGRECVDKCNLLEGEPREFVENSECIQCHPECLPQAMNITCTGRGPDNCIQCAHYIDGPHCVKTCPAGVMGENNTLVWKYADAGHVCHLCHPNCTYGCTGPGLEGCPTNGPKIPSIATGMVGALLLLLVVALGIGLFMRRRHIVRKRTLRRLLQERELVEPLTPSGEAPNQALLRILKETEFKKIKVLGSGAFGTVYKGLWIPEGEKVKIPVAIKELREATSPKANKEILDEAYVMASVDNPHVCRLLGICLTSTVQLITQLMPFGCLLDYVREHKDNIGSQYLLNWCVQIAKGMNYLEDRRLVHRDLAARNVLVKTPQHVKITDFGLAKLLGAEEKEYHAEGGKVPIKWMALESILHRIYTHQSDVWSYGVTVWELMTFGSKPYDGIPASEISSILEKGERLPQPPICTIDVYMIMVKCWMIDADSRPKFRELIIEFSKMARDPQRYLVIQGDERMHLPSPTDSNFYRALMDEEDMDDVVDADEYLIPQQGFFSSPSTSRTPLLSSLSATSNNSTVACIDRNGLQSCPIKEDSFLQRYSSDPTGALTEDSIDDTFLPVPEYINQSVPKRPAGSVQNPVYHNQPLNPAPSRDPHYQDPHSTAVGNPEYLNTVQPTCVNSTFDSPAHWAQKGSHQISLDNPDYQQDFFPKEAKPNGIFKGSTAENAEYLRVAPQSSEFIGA
"EGFR kinase inhibition (in words, FIG. 16) [2]","Flk-1 (VEGR2) kinase inhibition (in words, FIG. 16) [3]","PDGFR kinase inhibition (in words, FIG. 16) [4]",SMILES,concentration at which EGFR is not inhibited [1]
–,–,–,CN(C)c1ccc(/C=C2\C(=O)Nc3ccccc32)cc1 [DMBI],greater than 100 μM
potent inhibitors,potent inhibitors,potent inhibitors,COc1ccc2c(c1)CCCN2c1nc(C)nc2c1[nH]c1ccccc12 [Composition 106],–
